In this experiment the target is T1, eIF4A-eIF4G (Homo sapiens, UniProt P60842).
T1 construct: The entire ORF of human eIF4AI was ligated in-frame into the BamHI and HindIII sites of the pET-28a expression vector; made in house; host or cells: bait from E. coli BL21(DE3); eIF4G endogenous in HeLa lysate
In words: 6XHis-eIF4AI pulldown, eIF4A-eIF4G interaction. The class given is binding. Conditions: HeLa lysate; PatA at 100 μM. How it is done:
6XHis-eIF4AI pulldown, Co-immunoprecipitation, and m^7GTP-Sepharose pulldown. For 6XHis-eIF4AI pulldowns, HeLa lysates were prepared as described above. Equal aliquots (200 μl) of lysate were incubated with PatA analogs or DMSO and 8.5 μg of 6XHis-eIF4AI overnight at 4° C., followed by addition of Ni-NTA resin for 1 h, then resin was washed with 3 ml buffer, and boiled in SDS-PAGE loading buffer followed by SDS-PAGE and immunoblotting with indicated antibodies. For co-immunoprecipitation, 293T cells with vector control or pcDNA3-Flag-4B lysates were prepared by pipetting in: 20 mM HEPES, pH 7.4, 100 mM KCl, 0.5% Triton-X-100, 20% glycerol, protease inhibitor and 15 μg/ml RNAse A followed by clearing at 13 000 g (10 min). For DMDA-PatA treated samples, lysis and wash buffers also contained 100 nM DMDA-PatA. Anti-Flag antibody was incubated overnight at 4° C., followed by addition of Protein G beads for 4 h. Beads were washed 3× with 500 μl buffer, boiled in SDS-PAGE loading buffer followed by SDS-PAGE and immunoblotting. m^7GTP-Sepharose was performed as described (Yoder-Hill et al., 1993) with modifications. 30 μl RRL was incubated with DMSO or DMDA-PatA at room temperature for 30 min, diluted with buffer supplemented with DMSO or DMDA-PatA (20 nM), then combined with 50 μl beads for 3 h at 4° C. followed by 4 washes with 1 ml buffer. […]

T1 sequence (P60842 whole entry): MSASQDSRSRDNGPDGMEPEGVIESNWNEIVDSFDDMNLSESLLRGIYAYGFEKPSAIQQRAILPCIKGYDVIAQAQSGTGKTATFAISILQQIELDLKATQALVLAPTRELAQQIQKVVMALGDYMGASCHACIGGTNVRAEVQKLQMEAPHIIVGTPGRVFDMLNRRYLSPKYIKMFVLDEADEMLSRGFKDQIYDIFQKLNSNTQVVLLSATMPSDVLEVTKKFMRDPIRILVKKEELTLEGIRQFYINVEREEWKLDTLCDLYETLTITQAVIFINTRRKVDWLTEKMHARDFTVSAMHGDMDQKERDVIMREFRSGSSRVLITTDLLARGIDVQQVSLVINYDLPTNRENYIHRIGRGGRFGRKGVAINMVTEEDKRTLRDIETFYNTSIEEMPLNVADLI

With `CC(/C=C/C(C)=C/[C@@H]1Cc2nc(cs2)[C@@H](C)C[C@@H](N)CC(=O)O[C@@H](C)C/C(C)=C/C=C\C(=O)O1)=C\CN(C)C` [Pat A (1), Pateamine A], the “effect on eIF4A-eIF4G interaction” value is on record as “disrupted”.

The record behind these values is US8841285B2, “Potent immunosuppressive agents, derivatives and uses” (priority 2002, dated 2014).
